Paper PMC8878047 (Pharmaceutics, 2022)

Tested on: KM mice
Assay type: in vivo
Conditions: high-dose group, dead mice, HE staining
Description: After the acute toxicity test, the dead mice after oral administration and the surviving mice at the end of the observation period were promptly dissected and pathologically examined. […] We dissected the important organs (heart, liver, spleen, lung, kidney, large intestine, and small intestine) of dead mice and normal mice in the high-dose group of each drug solution. Then, the main organs were fixed in 10% buffered formalin and embedded in paraffin for 1–4 h. They were histopathologically examined under the optical microscope after slicing and staining with hematoxylin-eosin (HE) staining. No fixed parameters were compared between the treatment and control groups.

CCN1CCN(c2cc3c(cc2F)c(=O)c(C(=O)[O-])cn3C2CC2)CC1.[Na+] [EFX-Na, reference compound]
histopathological finding in kidney tissue: more and larger glomeruli in kidney tissue
